Source: PubChem BioAssay (NCI)
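The compound was tested at five concentrations on cells cultured in 96-well plates, with a 48-hour exposure period. TGI denotes the concentration required for complete inhibition of growth.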

Experiments:
Test in all cases: NCI-60 cell line screen, 48 h
SN12C renal = tested on: SN12C renal
A498 renal = tested on: A498 renal
SW-620 colon = tested on: SW-620 colon
HCT-116 colon = tested on: HCT-116 colon
CAKI-1 renal = tested on: CAKI-1 renal
NCI-H23 lung = tested on: NCI-H23 lung
T-47D breast = tested on: T-47D breast
HT29 colon = tested on: HT29 colon
HCC-2998 colon = tested on: HCC-2998 colon
HCT-15 colon = tested on: HCT-15 colon
SK-MEL-2 melanoma = tested on: SK-MEL-2 melanoma
COLO 205 colon = tested on: COLO 205 colon
NCI/ADR-RES ovarian = tested on: NCI/ADR-RES ovarian
KM12 colon = tested on: KM12 colon
EKVX NSCLC = tested on: EKVX NSCLC
M14 melanoma = tested on: M14 melanoma
SK-MEL-5 melanoma = tested on: SK-MEL-5 melanoma
OVCAR-8 ovarian = tested on: OVCAR-8 ovarian
SR leukemia = tested on: SR leukemia
A549 NSCLC = tested on: A549 NSCLC
MDA-MB-231 breast = tested on: MDA-MB-231 breast
MCF7 breast = tested on: MCF7 breast
SK-MEL-28 melanoma = tested on: SK-MEL-28 melanoma
NCI-H460 lung = tested on: NCI-H460 lung
MALME-3M melanoma = tested on: MALME-3M melanoma
SK-OV-3 ovarian = tested on: SK-OV-3 ovarian
RPMI-8226 leukemia = tested on: RPMI-8226 leukemia
NCI-H226 lung = tested on: NCI-H226 lung
TK-10 renal = tested on: TK-10 renal
RXF 393 renal = tested on: RXF 393 renal
PC-3 prostate = tested on: PC-3 prostate
IGROV1 ovarian = tested on: IGROV1 ovarian
SF-295 CNS = tested on: SF-295 CNS
HL-60(TB) leukemia = tested on: HL-60(TB) leukemia
U251 CNS = tested on: U251 CNS
SF-539 CNS = tested on: SF-539 CNS
OVCAR-5 ovarian = tested on: OVCAR-5 ovarian
MDA-N = tested on: MDA-N
OVCAR-3 ovarian = tested on: OVCAR-3 ovarian
UO-31 renal = tested on: UO-31 renal
CCRF-CEM leukemia = tested on: CCRF-CEM leukemia
MOLT-4 leukemia = tested on: MOLT-4 leukemia
OVCAR-4 ovarian = tested on: OVCAR-4 ovarian
LOX IMVI melanoma = tested on: LOX IMVI melanoma
NCI-H522 lung = tested on: NCI-H522 lung
HOP-62 NSCLC = tested on: HOP-62 NSCLC
MDA-MB-435 = tested on: MDA-MB-435
SF-268 CNS = tested on: SF-268 CNS
UACC-62 melanoma = tested on: UACC-62 melanoma
ACHN renal = tested on: ACHN renal
DU-145 prostate = tested on: DU-145 prostate
SNB-19 CNS = tested on: SNB-19 CNS
SNB-75 CNS = tested on: SNB-75 CNS
HS 578T breast = tested on: HS 578T breast
K-562 leukemia = tested on: K-562 leukemia
786-0 renal = tested on: 786-0 renal
UACC-257 melanoma = tested on: UACC-257 melanoma
HOP-92 NSCLC = tested on: HOP-92 NSCLC

CCCCC(=O)c1c(O)nc2sccn2c1=O
TGI (SN12C renal): > 10 µM | TGI (A498 renal): > 10 µM | TGI (SW-620 colon): > 10 µM | TGI (HCT-116 colon): > 10 µM | TGI (CAKI-1 renal): > 10 µM | TGI (NCI-H23 lung): > 10 µM | TGI (T-47D breast): > 10 µM | TGI (HT29 colon): > 10 µM | TGI (HCC-2998 colon): > 10 µM | TGI (HCT-15 colon): > 10 µM | TGI (SK-MEL-2 melanoma): > 10 µM | TGI (COLO 205 colon): > 10 µM | TGI (NCI/ADR-RES ovarian): > 10 µM | TGI (KM12 colon): > 10 µM | TGI (EKVX NSCLC): > 10 µM | TGI (M14 melanoma): > 10 µM | TGI (SK-MEL-5 melanoma): > 10 µM | TGI (OVCAR-8 ovarian): > 10 µM | TGI (SR leukemia): > 10 µM | TGI (A549 NSCLC): > 10 µM | TGI (MDA-MB-231 breast): > 10 µM | TGI (MCF7 breast): > 10 µM | TGI (SK-MEL-28 melanoma): > 10 µM | TGI (NCI-H460 lung): > 10 µM | TGI (MALME-3M melanoma): > 10 µM | TGI (SK-OV-3 ovarian): > 10 µM | TGI (RPMI-8226 leukemia): > 10 µM | TGI (NCI-H226 lung): > 10 µM | TGI (TK-10 renal): > 10 µM | TGI (RXF 393 renal): > 10 µM | TGI (PC-3 prostate): > 10 µM | TGI (IGROV1 ovarian): > 10 µM | TGI (SF-295 CNS): > 10 µM | TGI (HL-60(TB) leukemia): > 10 µM | TGI (U251 CNS): > 10 µM | TGI (SF-539 CNS): > 10 µM | TGI (OVCAR-5 ovarian): > 10 µM | TGI (MDA-N): > 10 µM | TGI (OVCAR-3 ovarian): > 10 µM | TGI (UO-31 renal): > 10 µM | TGI (CCRF-CEM leukemia): > 10 µM | TGI (MOLT-4 leukemia): > 10 µM | TGI (OVCAR-4 ovarian): > 10 µM | TGI (LOX IMVI melanoma): > 10 µM | TGI (NCI-H522 lung): > 10 µM | TGI (HOP-62 NSCLC): > 10 µM | TGI (MDA-MB-435): > 10 µM | TGI (SF-268 CNS): > 10 µM | TGI (UACC-62 melanoma): > 10 µM | TGI (ACHN renal): > 10 µM | TGI (DU-145 prostate): > 10 µM | TGI (SNB-19 CNS): > 10 µM | TGI (SNB-75 CNS): > 10 µM | TGI (HS 578T breast): > 10 µM

CCC1(c2ccccc2)Sc2ccccc2-n2cccc2C1=O (configuration not stated)
TGI (SN12C renal): > 10 µM | TGI (SW-620 colon): > 10 µM | TGI (K-562 leukemia): > 10 µM | TGI (CAKI-1 renal): > 10 µM | TGI (NCI-H23 lung): > 10 µM | TGI (T-47D breast): > 10 µM | TGI (HT29 colon): > 10 µM | TGI (HCC-2998 colon): > 10 µM | TGI (HCT-15 colon): > 10 µM | TGI (COLO 205 colon): > 10 µM | TGI (KM12 colon): > 10 µM | TGI (EKVX NSCLC): > 10 µM | TGI (M14 melanoma): > 10 µM | TGI (786-0 renal): > 10 µM | TGI (SK-MEL-5 melanoma): > 10 µM | TGI (OVCAR-8 ovarian): > 10 µM | TGI (SR leukemia): > 10 µM | TGI (A549 NSCLC): > 10 µM | TGI (MDA-MB-231 breast): > 10 µM | TGI (MCF7 breast): > 10 µM | TGI (SK-MEL-28 melanoma): > 10 µM | TGI (UACC-257 melanoma): > 10 µM | TGI (MALME-3M melanoma): > 10 µM | TGI (SK-OV-3 ovarian): > 10 µM | TGI (RPMI-8226 leukemia): > 10 µM | TGI (TK-10 renal): > 10 µM | TGI (RXF 393 renal): > 10 µM | TGI (PC-3 prostate): > 10 µM | TGI (IGROV1 ovarian): > 10 µM | TGI (SF-295 CNS): > 10 µM | TGI (HL-60(TB) leukemia): > 10 µM | TGI (MDA-N): > 10 µM | TGI (CCRF-CEM leukemia): > 10 µM | TGI (MOLT-4 leukemia): > 10 µM | TGI (HOP-62 NSCLC): > 10 µM | TGI (UACC-62 melanoma): > 10 µM | TGI (DU-145 prostate): > 10 µM | TGI (SNB-75 CNS): > 10 µM

COP(=O)(OC)C(Cc1cn(C(C)=O)c2ccccc12)C(=O)O (configuration not stated)
TGI (SN12C renal): > 100 µM | TGI (A498 renal): > 100 µM | TGI (SW-620 colon): > 100 µM | TGI (HCT-116 colon): > 100 µM | TGI (K-562 leukemia): > 100 µM | TGI (CAKI-1 renal): > 100 µM | TGI (NCI-H23 lung): > 100 µM | TGI (T-47D breast): > 100 µM | TGI (HT29 colon): > 100 µM | TGI (HCC-2998 colon): > 100 µM | TGI (HCT-15 colon): > 100 µM | TGI (SK-MEL-2 melanoma): > 100 µM | TGI (COLO 205 colon): > 100 µM | TGI (NCI/ADR-RES ovarian): > 100 µM | TGI (M14 melanoma): > 100 µM | TGI (SK-MEL-5 melanoma): > 100 µM | TGI (OVCAR-8 ovarian): > 100 µM | TGI (SR leukemia): > 100 µM | TGI (A549 NSCLC): > 100 µM | TGI (MDA-MB-231 breast): > 100 µM | TGI (MCF7 breast): > 100 µM | TGI (SK-MEL-28 melanoma): > 100 µM | TGI (UACC-257 melanoma): > 100 µM | TGI (NCI-H460 lung): > 100 µM | TGI (SK-OV-3 ovarian): > 100 µM | TGI (RPMI-8226 leukemia): > 100 µM | TGI (NCI-H226 lung): > 100 µM | TGI (TK-10 renal): > 100 µM | TGI (PC-3 prostate): > 100 µM | TGI (IGROV1 ovarian): > 100 µM | TGI (SF-295 CNS): > 100 µM | TGI (HL-60(TB) leukemia): > 100 µM | TGI (U251 CNS): > 100 µM | TGI (HOP-92 NSCLC): > 100 µM | TGI (OVCAR-5 ovarian): > 100 µM | TGI (MDA-N): > 100 µM | TGI (OVCAR-3 ovarian): > 100 µM | TGI (UO-31 renal): > 100 µM | TGI (CCRF-CEM leukemia): > 100 µM | TGI (MOLT-4 leukemia): > 100 µM | TGI (OVCAR-4 ovarian): > 100 µM | TGI (LOX IMVI melanoma): > 100 µM | TGI (NCI-H522 lung): > 100 µM | TGI (HOP-62 NSCLC): > 100 µM | TGI (ACHN renal): > 100 µM | TGI (DU-145 prostate): > 100 µM | TGI (SNB-19 CNS): > 100 µM | TGI (SNB-75 CNS): > 100 µM | TGI (HS 578T breast): > 100 µM

COc1cc(OC)c2nc(C)c3c(c2c1)SCC3
TGI (SN12C renal): 57.9 µM | TGI (A498 renal): 36.2 µM | TGI (SW-620 colon): > 100 µM | TGI (HCT-116 colon): 48.5 µM | TGI (K-562 leukemia): > 100 µM | TGI (CAKI-1 renal): 70.9 µM | TGI (NCI-H23 lung): 58.6 µM | TGI (T-47D breast): 58 µM | TGI (HT29 colon): 99.4 µM | TGI (HCC-2998 colon): > 100 µM | TGI (HCT-15 colon): > 100 µM | TGI (SK-MEL-2 melanoma): 67.5 µM | TGI (COLO 205 colon): > 100 µM | TGI (NCI/ADR-RES ovarian): 65.5 µM | TGI (KM12 colon): > 100 µM | TGI (EKVX NSCLC): 52.9 µM | TGI (M14 melanoma): > 100 µM | TGI (786-0 renal): 35.4 µM | TGI (SK-MEL-5 melanoma): 49.8 µM | TGI (OVCAR-8 ovarian): 35.4 µM | TGI (SR leukemia): 52.2 µM | TGI (A549 NSCLC): 40.9 µM | TGI (MDA-MB-231 breast): 44.7 µM | TGI (MCF7 breast): 36.2 µM | TGI (SK-MEL-28 melanoma): > 100 µM | TGI (UACC-257 melanoma): 78.3 µM | TGI (NCI-H460 lung): 54.3 µM | TGI (MALME-3M melanoma): 63.8 µM | TGI (SK-OV-3 ovarian): 48.9 µM | TGI (RPMI-8226 leukemia): 64.4 µM | TGI (NCI-H226 lung): 43.8 µM | TGI (TK-10 renal): 38.5 µM | TGI (RXF 393 renal): 54.1 µM | TGI (PC-3 prostate): 53.1 µM | TGI (IGROV1 ovarian): 34.7 µM | TGI (SF-295 CNS): 65.9 µM | TGI (HL-60(TB) leukemia): > 100 µM | TGI (U251 CNS): 55.9 µM | TGI (SF-539 CNS): 35.8 µM | TGI (OVCAR-5 ovarian): 80.2 µM | TGI (MDA-N): 85 µM | TGI (OVCAR-3 ovarian): 36.4 µM | TGI (UO-31 renal): 48.8 µM | TGI (CCRF-CEM leukemia): > 100 µM | TGI (MOLT-4 leukemia): > 100 µM | TGI (OVCAR-4 ovarian): 38.5 µM | TGI (LOX IMVI melanoma): > 100 µM | TGI (NCI-H522 lung): 77.8 µM | TGI (HOP-62 NSCLC): 34.6 µM | TGI (MDA-MB-435): 58.3 µM | TGI (SF-268 CNS): 44.6 µM | TGI (UACC-62 melanoma): 56.4 µM | TGI (ACHN renal): 34.5 µM | TGI (DU-145 prostate): > 100 µM | TGI (SNB-19 CNS): 34.8 µM | TGI (HS 578T breast): 57.7 µM
